Data published in patent US6667025B2 (Mitsubishi Pharma Corporation, priority 1997, dated 2003).

Assays:
[1] = tested on: IL-2 mRNA in alloantigen-stimulated splenic T cells; assay: IL-2 mRNA expression in allogeneic mixed lymphocyte culture (PCR); format: cell-based, rat; conditions: 48 hours
Protocol: The housekeeping gene HPRT was used as an internal control in order to compare levels of IL-2 mRNA levels relative to the HPRT mRNA levels, as detailed below.
Allogeneic mixed lymphocyte culture was carried out by using nylon-nonadherent spleen cells of F344 rat (RT1^1v1) as responder cells and the spleen cells of WKAH rat (RT1^k) pretreated with 40 μg/ml of mitomycin C for 30 min as stimulator cells. […] After culturing for 48 hours, the cells were recovered by centrifugation. The expression of IL-2 mRNA in the cells was determined by a polymerase chain reaction (PCR) method.
Total RNA was reverse transcribed in […] of buffer solution containing 10 mmol/L Tris-HCl (pH 8.3),50 mM KCl, 5 mM MgCl2, 1 mM each dNTP (dATP, dGTP, dTTP and dCTP), 60 U RNase inhibitor (Takara Ltd. Tokyo, Japan), 15 U avian myelobalastosis virus reverse transcriptase (Takara Ltd.) and 150 pmol random 9-mers at 30° C. for 10 min and 42° C. for 30 min. Primer sequences for IL-2 and hypoxanthine-guanine phosphoribosyltransferase (HPRT) were taken from the previous report (44).
The length in base pairs of the PCR products of IL-2 and HPRT are 351 and 608 bp respectively. […] Fluorescence intensity of the specific bands was visualized by fluorescence image analyzer (FLUOR IMAGER 575®, Molecular Dynamics).

[2] = tested on: cardiac allograft, WKAH donors and ACI recipients; assay: Heterotopic cardiac allograft survival, MHC-incompatible rat strains; format: in vivo
[3] = tested on: skin allograft, WKAH donor and F344 recipients; format: in vivo
Excerpt: Two MHC-incompatible rat strains were selected, WKAH donor (RT1^k) and F344 recipients (RT1^IV1). Full-thickness skin grafts (2.0×2.0 cm square) were transplanted to the lateral thorax of recipients and wrapped with sterile, bactericidal gauze. The chest was then wrapped with an elastic bandage. Five days after transplantation, the wraps were removed and the grafts inspected daily for rejection. Rejection was defined as more than 90% necrosis of graft epithelium.

SMILES: C=CC[C@@H]1/C=C(\C)C[C@H](C)C[C@H](OC)[C@H]2O[C@@](O)(C(=O)C(=O)N3CCCC[C@H]3C(=O)O[C@H](/C(C)=C/[C@@H]3CC[C@@H](O)[C@H](OC)C3)[C@H](C)[C@@H](O)CC1=O)[C@H](C)C[C@@H]2OC [TRL, tacrolimus, reference compound]
- concentration that inhibited IL-2 mRNA expression [1]: ≥ 1 nM
- induction of long-term cardiac graft survival ([2]; even at the highest dose tested): hardly induced long-term graft survival
- dose that significantly prolonged cardiac allograft survival ([2]; vs control): ≥ 1 mg/kg
- median survival time (MST) of skin graft ([3]; 10 mg/kg for 14 days): 22.5 days
- oral dose that significantly prolonged skin graft survival ([3]; oral, WKAH to F344 rats): ≥ 0.3 mg/kg
